Patent publication US20260284018A1, “DUAL INHIBITORS OF DYRK1A AND 5-HT2 FOR TREATING A BRAIN DISORDER” (THE REGENTS OF THE UNIVERSITY OF CALIFORNIA, priority 2023, published 2026)

Experiments:
Experiment in all cases: KINOMEscan scanEDGE
Format in all cases: binding
Settings in all cases: read-out: Percent Control
[1] = biological target: T1, ABL1(T315I)-phosphorylated (Homo sapiens, UniProt P00519, T315I)
T1 construct: purchased Eurofins DiscoverX
Protocol: (§1) Kinome Scan. Compound HTW_A_8 fumarate was screened against 97 kinases at a single concentration of 10 μM at Eurofins DiscoverX using their KINOMEscan™ scanEDGE assay. The results are reported as the % activity relative to DMSO control, where lower values indicate higher affinity. See Table 1 for the full kinome profile.

ABL1-nonphosphorylated = biological target: T2, ABL1-nonphosphorylated (Homo sapiens, UniProt P00519)
T2 construct: purchased Eurofins DiscoverX
Protocol: as §1

ABL1-phosphorylated = biological target: T3, ABL1-phosphorylated (Homo sapiens, UniProt P00519)
T3 construct: purchased Eurofins DiscoverX
Protocol: as §1

ACVR1B = biological target: T4, ACVR1B (Homo sapiens, UniProt P36896)
T4 construct: purchased Eurofins DiscoverX
Protocol: as §1

ALK = biological target: T5, ALK (Homo sapiens, UniProt Q9UM73)
T5 construct: purchased Eurofins DiscoverX
Protocol: as §1

AURKB = biological target: T6, AURKB (Homo sapiens, UniProt Q96GD4)
T6 construct: purchased Eurofins DiscoverX
Protocol: as §1

BRAF(V600E) = biological target: T7, BRAF(V600E) (Homo sapiens, UniProt P15056, V600E)
T7 construct: purchased Eurofins DiscoverX
Protocol: as §1

CHEK1 = biological target: T8, CHEK1 (Homo sapiens, UniProt O14757)
T8 construct: purchased Eurofins DiscoverX
Protocol: as §1

CSNK1G2 = biological target: T9, CSNK1G2 (Homo sapiens, UniProt P78368)
T9 construct: purchased Eurofins DiscoverX
Protocol: as §1

DCAMKL1 = biological target: T10, DCAMKL1 (Homo sapiens, UniProt O15075)
T10 construct: purchased Eurofins DiscoverX
Protocol: as §1

DYRK1B = biological target: T11, DYRK1B (Homo sapiens, UniProt Q9Y463)
T11 construct: purchased Eurofins DiscoverX
Protocol: as §1

EGFR = biological target: T12, EGFR (Homo sapiens, UniProt P00533)
T12 construct: purchased Eurofins DiscoverX
Protocol: as §1

ERBB2 = biological target: T13, ERBB2 (Homo sapiens, UniProt P04626)
T13 construct: purchased Eurofins DiscoverX
Protocol: as §1

ERBB4 = biological target: T14, ERBB4 (Homo sapiens, UniProt Q15303)
T14 construct: purchased Eurofins DiscoverX
Protocol: as §1

FGFR2 = biological target: T15, FGFR2 (Homo sapiens, UniProt P21802)
T15 construct: purchased Eurofins DiscoverX
Protocol: as §1

FGFR3 = biological target: T16, FGFR3 (Homo sapiens, UniProt P22607)
T16 construct: purchased Eurofins DiscoverX
Protocol: as §1

GSK3B = biological target: T17, GSK3B (Homo sapiens, UniProt P49841)
T17 construct: purchased Eurofins DiscoverX
Protocol: as §1

IKK-alpha = biological target: T18, IKK-alpha (Homo sapiens, UniProt O15111)
T18 construct: purchased Eurofins DiscoverX
Protocol: as §1

IKK-beta = biological target: T19, IKK-beta (Homo sapiens, UniProt O14920)
T19 construct: purchased Eurofins DiscoverX
Protocol: as §1

INSR = biological target: T20, INSR (Homo sapiens, UniProt P06213)
T20 construct: purchased Eurofins DiscoverX
Protocol: as §1

[2] = biological target: T21, JAK3(JH1domain-catalytic) (Homo sapiens, UniProt P52333)
T21 construct: JAK3(JH1domain-catalytic); purchased Eurofins DiscoverX
Protocol: as §1

JNK2 = biological target: T22, JNK2 (Homo sapiens, UniProt P45984)
T22 construct: purchased Eurofins DiscoverX
Protocol: as §1

KIT = biological target: T23, KIT (Homo sapiens, UniProt P10721)
T23 construct: purchased Eurofins DiscoverX
Protocol: as §1

KIT(D816V) = biological target: T24, KIT(D816V) (Homo sapiens, UniProt P10721, D816V)
T24 construct: purchased Eurofins DiscoverX
Protocol: as §1

MAP3K4 = biological target: T25, MAP3K4 (Homo sapiens, UniProt Q9Y6R4)
T25 construct: purchased Eurofins DiscoverX (KINOMEscan scanEDGE service)
Protocol: as §1

MLK1 = biological target: T26, MLK1 (Homo sapiens, UniProt P80192)
T26 construct: purchased Eurofins DiscoverX (KINOMEscan scanEDGE service)
Protocol: as §1

PCTK1 = biological target: T27, PCTK1 (Homo sapiens, UniProt Q00536)
T27 construct: purchased Eurofins DiscoverX (KINOMEscan scanEDGE service)
Protocol: as §1

PDGFRA = biological target: T28, PDGFRA (Homo sapiens, UniProt P16234)
T28 construct: purchased Eurofins DiscoverX (KINOMEscan scanEDGE service)
Protocol: as §1

PIM2 = biological target: T29, PIM2 (Homo sapiens, UniProt Q9P1W9)
T29 construct: purchased Eurofins DiscoverX (KINOMEscan scanEDGE service)
Protocol: as §1

PIM3 = biological target: T30, PIM3 (Homo sapiens, UniProt Q86V86)
T30 construct: purchased Eurofins DiscoverX (KINOMEscan scanEDGE service)
Protocol: as §1

PKAC-alpha = biological target: T31, PKAC-alpha (Homo sapiens, UniProt P17612)
T31 construct: purchased Eurofins DiscoverX KINOMEscan scanEDGE
Protocol: as §1

PLK3 = biological target: T32, PLK3 (Homo sapiens, UniProt Q9H4B4)
T32 construct: purchased Eurofins DiscoverX KINOMEscan scanEDGE
Protocol: as §1

PLK4 = biological target: T33, PLK4 (Homo sapiens, UniProt O00444)
T33 construct: purchased Eurofins DiscoverX KINOMEscan scanEDGE
Protocol: as §1

RAF1 = biological target: T34, RAF1 (Homo sapiens, UniProt P04049)
T34 construct: purchased Eurofins DiscoverX KINOMEscan scanEDGE
Protocol: as §1

SRC = biological target: T35, SRC (Homo sapiens, UniProt P12931)
T35 construct: purchased Eurofins DiscoverX KINOMEscan scanEDGE
Protocol: as §1

SRPK3 = biological target: T36, SRPK3 (Homo sapiens, UniProt Q9UPE1)
T36 construct: purchased Eurofins DiscoverX KINOMEscan scanEDGE
Protocol: as §1

TIE2 = biological target: T37, TIE2 (Homo sapiens, UniProt Q02763)
T37 construct: purchased Eurofins DiscoverX KINOMEscan scanEDGE
Protocol: as §1

[3] = biological target: T38, TYK2(JH1domain-catalytic) (Homo sapiens, UniProt P29597)
T38 construct: TYK2(JH1domain-catalytic); purchased Eurofins DiscoverX KINOMEscan scanEDGE
Protocol: as §1

T25 sequence (Q9Y6R4 whole entry): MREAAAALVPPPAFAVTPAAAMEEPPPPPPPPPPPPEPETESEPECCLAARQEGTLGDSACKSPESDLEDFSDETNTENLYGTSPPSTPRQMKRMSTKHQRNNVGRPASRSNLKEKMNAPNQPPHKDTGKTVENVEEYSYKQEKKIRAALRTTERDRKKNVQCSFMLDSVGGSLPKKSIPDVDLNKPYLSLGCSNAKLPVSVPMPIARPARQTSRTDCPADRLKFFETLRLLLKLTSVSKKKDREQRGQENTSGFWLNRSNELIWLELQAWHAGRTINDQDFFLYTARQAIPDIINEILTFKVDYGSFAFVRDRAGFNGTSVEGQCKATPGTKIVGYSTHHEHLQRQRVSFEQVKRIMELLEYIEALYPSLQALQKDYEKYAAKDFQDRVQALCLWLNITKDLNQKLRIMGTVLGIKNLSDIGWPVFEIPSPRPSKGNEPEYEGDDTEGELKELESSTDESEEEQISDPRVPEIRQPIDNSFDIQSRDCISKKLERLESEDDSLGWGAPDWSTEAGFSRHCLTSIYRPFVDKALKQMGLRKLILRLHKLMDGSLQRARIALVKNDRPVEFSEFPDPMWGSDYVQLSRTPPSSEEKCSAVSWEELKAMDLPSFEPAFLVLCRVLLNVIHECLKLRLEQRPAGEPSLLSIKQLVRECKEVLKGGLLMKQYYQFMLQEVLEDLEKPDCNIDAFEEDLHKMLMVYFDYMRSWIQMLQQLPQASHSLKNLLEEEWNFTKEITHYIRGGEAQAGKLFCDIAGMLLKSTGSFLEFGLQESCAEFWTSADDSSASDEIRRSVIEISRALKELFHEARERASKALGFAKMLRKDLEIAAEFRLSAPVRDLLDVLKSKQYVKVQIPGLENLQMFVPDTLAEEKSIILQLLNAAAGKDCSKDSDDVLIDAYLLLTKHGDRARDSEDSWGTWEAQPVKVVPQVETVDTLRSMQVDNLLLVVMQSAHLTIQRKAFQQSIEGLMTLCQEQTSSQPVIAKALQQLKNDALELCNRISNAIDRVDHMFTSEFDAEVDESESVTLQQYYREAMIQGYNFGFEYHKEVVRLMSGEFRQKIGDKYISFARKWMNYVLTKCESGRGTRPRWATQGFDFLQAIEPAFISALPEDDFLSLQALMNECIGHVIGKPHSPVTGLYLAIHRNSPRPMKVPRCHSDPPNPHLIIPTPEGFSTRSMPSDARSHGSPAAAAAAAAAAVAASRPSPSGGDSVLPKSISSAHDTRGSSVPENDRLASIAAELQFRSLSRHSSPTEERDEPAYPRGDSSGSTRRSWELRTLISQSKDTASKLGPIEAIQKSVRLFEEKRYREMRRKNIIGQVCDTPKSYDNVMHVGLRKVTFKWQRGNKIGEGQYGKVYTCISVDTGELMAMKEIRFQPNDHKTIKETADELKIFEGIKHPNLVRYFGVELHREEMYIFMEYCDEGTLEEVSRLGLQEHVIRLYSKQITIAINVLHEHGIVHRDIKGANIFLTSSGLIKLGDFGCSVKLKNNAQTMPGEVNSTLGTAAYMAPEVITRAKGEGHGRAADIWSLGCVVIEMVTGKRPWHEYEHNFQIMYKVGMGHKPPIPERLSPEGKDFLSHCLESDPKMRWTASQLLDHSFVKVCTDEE
T19 sequence (O14920 whole entry): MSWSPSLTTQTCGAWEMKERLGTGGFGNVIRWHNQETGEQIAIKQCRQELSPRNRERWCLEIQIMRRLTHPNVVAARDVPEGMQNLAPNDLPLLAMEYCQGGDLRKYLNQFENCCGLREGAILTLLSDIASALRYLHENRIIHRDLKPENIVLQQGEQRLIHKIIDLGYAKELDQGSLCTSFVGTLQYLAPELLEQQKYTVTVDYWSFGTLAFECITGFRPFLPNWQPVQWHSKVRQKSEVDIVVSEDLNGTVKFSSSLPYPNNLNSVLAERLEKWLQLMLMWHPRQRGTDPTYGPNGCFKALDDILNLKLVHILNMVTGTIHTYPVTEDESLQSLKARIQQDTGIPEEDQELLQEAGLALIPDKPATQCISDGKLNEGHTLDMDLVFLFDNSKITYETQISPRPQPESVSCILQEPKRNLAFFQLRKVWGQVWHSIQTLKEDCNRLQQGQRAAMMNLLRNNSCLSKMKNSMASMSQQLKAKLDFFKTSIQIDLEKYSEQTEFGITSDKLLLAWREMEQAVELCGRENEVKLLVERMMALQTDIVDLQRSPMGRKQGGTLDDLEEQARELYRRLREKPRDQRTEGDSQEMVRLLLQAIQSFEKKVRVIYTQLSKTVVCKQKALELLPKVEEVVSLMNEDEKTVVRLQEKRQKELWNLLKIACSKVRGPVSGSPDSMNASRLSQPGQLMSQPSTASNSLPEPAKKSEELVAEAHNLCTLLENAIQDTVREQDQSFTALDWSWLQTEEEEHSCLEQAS
T4 sequence (P36896 24-505): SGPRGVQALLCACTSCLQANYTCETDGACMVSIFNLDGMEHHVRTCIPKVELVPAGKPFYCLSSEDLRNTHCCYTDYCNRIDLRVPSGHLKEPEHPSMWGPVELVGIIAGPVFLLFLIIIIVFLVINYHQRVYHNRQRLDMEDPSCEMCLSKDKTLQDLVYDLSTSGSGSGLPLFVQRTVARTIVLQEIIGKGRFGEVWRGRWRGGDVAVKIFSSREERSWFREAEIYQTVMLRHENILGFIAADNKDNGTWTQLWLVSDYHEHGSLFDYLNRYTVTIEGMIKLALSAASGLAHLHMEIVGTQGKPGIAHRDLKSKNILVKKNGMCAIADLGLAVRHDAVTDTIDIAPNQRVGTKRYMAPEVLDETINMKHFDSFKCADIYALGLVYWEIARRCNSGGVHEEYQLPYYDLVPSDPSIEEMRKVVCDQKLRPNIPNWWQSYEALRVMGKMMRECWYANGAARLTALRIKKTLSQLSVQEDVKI
T18 sequence (O15111 whole entry): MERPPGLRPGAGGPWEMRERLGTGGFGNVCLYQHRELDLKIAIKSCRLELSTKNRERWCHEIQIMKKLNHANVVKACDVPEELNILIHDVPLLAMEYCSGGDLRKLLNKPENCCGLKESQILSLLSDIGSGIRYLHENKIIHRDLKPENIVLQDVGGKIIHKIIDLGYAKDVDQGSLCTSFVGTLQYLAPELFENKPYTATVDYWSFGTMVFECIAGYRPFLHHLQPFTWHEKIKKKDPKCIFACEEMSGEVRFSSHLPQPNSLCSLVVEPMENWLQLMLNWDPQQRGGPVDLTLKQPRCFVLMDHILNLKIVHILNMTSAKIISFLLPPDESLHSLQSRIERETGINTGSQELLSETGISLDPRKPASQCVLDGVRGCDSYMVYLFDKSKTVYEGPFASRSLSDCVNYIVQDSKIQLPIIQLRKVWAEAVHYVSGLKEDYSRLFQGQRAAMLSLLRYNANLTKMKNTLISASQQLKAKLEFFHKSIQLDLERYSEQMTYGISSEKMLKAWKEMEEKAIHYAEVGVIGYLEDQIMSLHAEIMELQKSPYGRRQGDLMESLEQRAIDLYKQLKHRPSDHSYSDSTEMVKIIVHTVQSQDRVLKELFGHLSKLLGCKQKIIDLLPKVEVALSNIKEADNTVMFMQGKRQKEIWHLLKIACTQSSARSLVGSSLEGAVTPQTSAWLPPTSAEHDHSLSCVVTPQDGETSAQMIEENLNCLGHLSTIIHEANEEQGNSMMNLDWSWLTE
T36 sequence (Q9UPE1 whole entry): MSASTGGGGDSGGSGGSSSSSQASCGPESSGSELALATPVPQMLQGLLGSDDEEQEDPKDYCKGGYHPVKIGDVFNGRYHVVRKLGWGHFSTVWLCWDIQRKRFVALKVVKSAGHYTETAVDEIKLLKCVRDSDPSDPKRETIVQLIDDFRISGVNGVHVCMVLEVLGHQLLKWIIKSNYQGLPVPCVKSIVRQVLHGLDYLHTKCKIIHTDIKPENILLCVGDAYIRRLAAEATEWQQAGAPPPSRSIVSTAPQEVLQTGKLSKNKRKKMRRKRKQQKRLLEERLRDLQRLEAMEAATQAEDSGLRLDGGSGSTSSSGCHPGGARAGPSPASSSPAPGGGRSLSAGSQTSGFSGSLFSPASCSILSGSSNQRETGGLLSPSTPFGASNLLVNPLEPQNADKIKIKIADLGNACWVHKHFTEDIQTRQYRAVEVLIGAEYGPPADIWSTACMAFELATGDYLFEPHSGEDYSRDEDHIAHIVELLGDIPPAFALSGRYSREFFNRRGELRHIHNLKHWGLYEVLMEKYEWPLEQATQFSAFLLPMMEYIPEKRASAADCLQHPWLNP
T9 sequence (P78368 whole entry): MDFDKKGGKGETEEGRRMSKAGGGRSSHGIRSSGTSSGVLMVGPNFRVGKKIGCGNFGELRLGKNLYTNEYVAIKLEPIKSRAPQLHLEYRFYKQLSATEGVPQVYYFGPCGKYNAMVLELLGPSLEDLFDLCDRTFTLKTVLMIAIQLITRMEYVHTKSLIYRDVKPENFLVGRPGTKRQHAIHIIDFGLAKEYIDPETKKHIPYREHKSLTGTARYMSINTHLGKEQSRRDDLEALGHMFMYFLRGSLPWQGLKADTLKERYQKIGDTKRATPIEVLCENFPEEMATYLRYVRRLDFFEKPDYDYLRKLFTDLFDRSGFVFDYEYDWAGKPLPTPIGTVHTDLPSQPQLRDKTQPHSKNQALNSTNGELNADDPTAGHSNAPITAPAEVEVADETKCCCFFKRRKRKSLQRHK
T27 sequence (Q00536 whole entry): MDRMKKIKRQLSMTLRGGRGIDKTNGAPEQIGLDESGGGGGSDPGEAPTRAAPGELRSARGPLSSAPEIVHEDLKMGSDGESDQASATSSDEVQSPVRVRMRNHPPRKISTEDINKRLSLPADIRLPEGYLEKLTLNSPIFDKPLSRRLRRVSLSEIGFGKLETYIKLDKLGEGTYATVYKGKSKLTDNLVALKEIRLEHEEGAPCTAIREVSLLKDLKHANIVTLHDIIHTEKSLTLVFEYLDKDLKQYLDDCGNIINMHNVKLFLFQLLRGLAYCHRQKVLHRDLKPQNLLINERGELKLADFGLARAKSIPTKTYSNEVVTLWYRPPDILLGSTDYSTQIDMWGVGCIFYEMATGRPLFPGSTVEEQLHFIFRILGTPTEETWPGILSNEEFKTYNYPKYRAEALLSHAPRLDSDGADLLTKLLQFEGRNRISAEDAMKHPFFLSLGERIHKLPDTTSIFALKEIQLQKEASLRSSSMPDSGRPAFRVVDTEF

Compound `COc1ccc2c3ccnc(C)c3n(CCN(C)C)c2c1.O=C(O)/C=C/C(=O)O` [HTW_A_8 fumarate, 2-(7-methoxy-1-methyl-9H-pyrido[3,4-b]indol-9-yl)-N,N-dimethylethan-1-amine Fumarate Salt (2:3)] has a remaining binding at 10 µM [1] of 100%, a remaining binding at 10 µM (ABL1-nonphosphorylated) of 79% and a remaining binding at 10 µM (ABL1-phosphorylated) of 81%. The remaining binding at 10 µM (ACVR1B) was 83%, the remaining binding at 10 µM (ALK) was 79% and the remaining binding at 10 µM (AURKB) was 100%. It also gave a remaining binding at 10 µM (BRAF(V600E)) of 100%, a remaining binding at 10 µM (CHEK1) of 93% and a remaining binding at 10 µM (CSNK1G2) of 86%. For the same compound, the remaining binding at 10 µM (DCAMKL1) was 98%, the remaining binding at 10 µM (DYRK1B) was 10% and the remaining binding at 10 µM (EGFR) was 84%. The remaining binding at 10 µM (ERBB2) was 100%, the remaining binding at 10 µM (ERBB4) was 100% and the remaining binding at 10 µM (FGFR2) was 95%. For the same compound, the remaining binding at 10 µM (FGFR3) was 95%, the remaining binding at 10 µM (GSK3B) was 100% and the remaining binding at 10 µM (IKK-alpha) was 100%. For the same compound, the remaining binding at 10 µM (IKK-beta) was 100%, the remaining binding at 10 µM (INSR) was 100% and the remaining binding at 10 µM [2] was 100%. It also gave a remaining binding at 10 µM (JNK2) of 81%, a remaining binding at 10 µM (KIT) of 100% and a remaining binding at 10 µM (KIT(D816V)) of 100%. For the same compound, the remaining binding at 10 µM (MAP3K4) was 100%, the remaining binding at 10 µM (MLK1) was 91% and the remaining binding at 10 µM (PCTK1) was 96%. The remaining binding at 10 µM (PDGFRA) was 100%, the remaining binding at 10 µM (PIM2) was 84% and the remaining binding at 10 µM (PIM3) was 96%. For the same compound, the remaining binding at 10 µM (PKAC-alpha) was 97%, the remaining binding at 10 µM (PLK3) was 96% and the remaining binding at 10 µM (PLK4) was 81%. It also gave a remaining binding at 10 µM (RAF1) of 93%, a remaining binding at 10 µM (SRC) of 99% and a remaining binding at 10 µM (SRPK3) of 81%. For the same compound, the remaining binding at 10 µM (TIE2) was 99% and the remaining binding at 10 µM [3] was 97%.
